What all share (experiment): relative viability (nuclei count vs DMSO), 5 days (fraction); higher = more cells survive
Compound in assay [1]: C[C@@H](N)c1ccc(C(=O)Nc2ccnc3[nH]ccc23)cc1 + CC1(C)CCC(c2ccc(Cl)cc2)=C(CN2CCN(c3ccc(C(=O)NS(=O)(=O)c4ccc(N[C@H](CCN5CCOCC5)CSc5ccccc5)c(S(=O)(=O)C(F)(F)F)c4)cc3)CC2)C1 [Navitoclax] (partner 0.5 µM)
The method in brief:
(§1)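 Relative viability is defined as nuclei in treated wells over nuclei in vehicle wells. Duplicate plates were run and medians reported. Lung cancer cell lines in 1536-well plates were dosed by pin tool one day after seeding, with one drug or with a fixed anchor-drug dose plus five library-drug doses (not always all listed) in √10 steps, and nuclei were counted after 5 days.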

Compound in assay [2]: O[C@H]1CC[C@H](Nc2ncc3nc(Nc4c(F)cc(F)cc4F)n([C@H]4CCOC4)c3n2)CC1 [Tanzisertib] + CC(=O)c1c(C)c2cnc(Nc3ccc(N4CCNCC4)cn3)nc2n(C2CCCC2)c1=O [Palbociclib] (partner 0.5 µM)
The method in brief:
as §1

Compound in the assay “Tanzisertib + Luminespib”: O[C@H]1CC[C@H](Nc2ncc3nc(Nc4c(F)cc(F)cc4F)n([C@H]4CCOC4)c3n2)CC1 [Tanzisertib] + CCNC(=O)c1noc(-c2cc(C(C)C)c(O)cc2O)c1-c1ccc(CN2CCOCC2)cc1 [Luminespib] (partner 0.01 µM)
The method in brief:
as §1

Compound in the assay “Tanzisertib + Lapatinib”: O[C@H]1CC[C@H](Nc2ncc3nc(Nc4c(F)cc(F)cc4F)n([C@H]4CCOC4)c3n2)CC1 [Tanzisertib] + CS(=O)(=O)CCNCc1ccc(-c2ccc3ncnc(Nc4ccc(OCc5cccc(F)c5)c(Cl)c4)c3c2)o1 [Lapatinib] (partner 2 µM)
Put shortly: as §1

As to NCI-H3122, the relative viability was found to be 1.05 in assay [1] (first compound 0.04 µM); 1.01 in assay [1] (first compound 0.1265 µM); 0.981 in assay [1] (first compound 0.4 µM); 0.976 in assay [1] (first compound 1.265 µM); 0.989 in assay [1] (first compound 4 µM); 0.23 in assay [2] (first compound 0.08 µM). Further, the relative viability turned out to be 0.187 in assay [2] (first compound 0.253 µM); 0.213 in assay [2] (first compound 0.8 µM); 0.159 in assay [2] (first compound 2.53 µM); 0.206 in assay [2] (first compound 8 µM); 0.134 with Tanzisertib + Luminespib (first compound 0.08 µM); 0.0952 with Tanzisertib + Luminespib (first compound 0.253 µM). Also, the relative viability in the assay with Tanzisertib + Luminespib (first compound 0.8 µM) was found to be 0.125; with Tanzisertib + Luminespib (first compound 2.53 µM) it was 0.0854; with Tanzisertib + Luminespib (first compound 8 µM) it was 0.103; in the assay with Tanzisertib + Lapatinib (first compound 0.08 µM), 1.03; in the assay with Tanzisertib + Lapatinib (first compound 0.253 µM), 1.01; with Tanzisertib + Lapatinib (first compound 0.8 µM), 0.998. The relative viability in the assay with Tanzisertib + Lapatinib (first compound 2.53 µM) and in the assay with Tanzisertib + Lapatinib (first compound 8 µM) was 1.06 each time.

Regarding PC-3 [JPC-3], the relative viability in assay [1] (first compound 0.04 µM) is 0.833; in assay [1] (first compound 0.1265 µM) it was 0.866; in assay [1] (first compound 0.4 µM), 0.907; in assay [1] (first compound 1.265 µM), 0.897; in assay [1] (first compound 4 µM), 0.798; in assay [2] (first compound 0.08 µM), 0.539. The relative viability was 0.53 in assay [2] (first compound 0.253 µM); 0.576 in assay [2] (first compound 0.8 µM); 0.521 in assay [2] (first compound 2.53 µM); 0.571 in assay [2] (first compound 8 µM); 0.621 with Tanzisertib + Luminespib (first compound 0.08 µM); 0.758 with Tanzisertib + Luminespib (first compound 0.253 µM). Moreover, the relative viability in the assay with Tanzisertib + Luminespib (first compound 0.8 µM) was 0.693; with Tanzisertib + Luminespib (first compound 2.53 µM), 0.662; with Tanzisertib + Luminespib (first compound 8 µM), 0.6; in the assay with Tanzisertib + Lapatinib (first compound 0.08 µM), 0.466; with Tanzisertib + Lapatinib (first compound 0.253 µM), 0.406; with Tanzisertib + Lapatinib (first compound 0.8 µM) it was 0.494. Moreover, the relative viability with Tanzisertib + Lapatinib (first compound 2.53 µM) was found to be 0.422; in the assay with Tanzisertib + Lapatinib (first compound 8 µM), 0.494.

For the cell line PC-14, the relative viability in assay [1] (first compound 0.04 µM) was 0.963; in assay [1] (first compound 0.1265 µM), 1.04; in assay [1] (first compound 0.4 µM), 0.984; in assay [1] (first compound 1.265 µM), 0.935; in assay [1] (first compound 4 µM) it was 0.808; in assay [2] (first compound 0.08 µM), 0.681. Besides, the relative viability in assay [2] (first compound 0.253 µM) was found to be 0.533; in assay [2] (first compound 0.8 µM), 0.589; in assay [2] (first compound 2.53 µM) it was 0.532; in assay [2] (first compound 8 µM), 0.208; with Tanzisertib + Luminespib (first compound 0.08 µM), 0.181; in the assay with Tanzisertib + Luminespib (first compound 0.253 µM), 0.109. Besides, the relative viability with Tanzisertib + Luminespib (first compound 0.8 µM) stood at 0.22; with Tanzisertib + Luminespib (first compound 2.53 µM), 0.217; in the assay with Tanzisertib + Luminespib (first compound 8 µM) it was 0.17; with Tanzisertib + Lapatinib (first compound 0.08 µM) it was 0.34; in the assay with Tanzisertib + Lapatinib (first compound 0.253 µM) it was 0.303; in the assay with Tanzisertib + Lapatinib (first compound 0.8 µM) it was 0.26. For the same cell line, the relative viability with Tanzisertib + Lapatinib (first compound 2.53 µM) is 0.341; in the assay with Tanzisertib + Lapatinib (first compound 8 µM), 0.311.

On to RERF-LC-KJ, for which the relative viability is 0.962 in assay [1] (first compound 0.04 µM); 0.99 in assay [1] (first compound 0.1265 µM); 1.42 in assay [1] (first compound 0.4 µM); 1.1 in assay [1] (first compound 1.265 µM); 0.95 in assay [1] (first compound 4 µM); 1.12 in assay [2] (first compound 0.08 µM). Besides, the relative viability stood at 1.01 in assay [2] (first compound 0.253 µM); 1.25 in assay [2] (first compound 0.8 µM); 1.05 in assay [2] (first compound 2.53 µM); 1.05 in assay [2] (first compound 8 µM); 1.29 with Tanzisertib + Luminespib (first compound 0.08 µM); 1.17 with Tanzisertib + Luminespib (first compound 0.253 µM). For the same cell line, the relative viability was 1.29 with Tanzisertib + Luminespib (first compound 0.8 µM); 1.16 in the assay with Tanzisertib + Luminespib (first compound 2.53 µM); 1.22 with Tanzisertib + Luminespib (first compound 8 µM); 0.872 in the assay with Tanzisertib + Lapatinib (first compound 0.08 µM); 0.873 with Tanzisertib + Lapatinib (first compound 0.253 µM); 0.884 with Tanzisertib + Lapatinib (first compound 0.8 µM). In addition, the relative viability with Tanzisertib + Lapatinib (first compound 2.53 µM) is 0.8; with Tanzisertib + Lapatinib (first compound 8 µM), 0.892.

As to SK-LU-1, the relative viability stood at 0.922 in assay [1] (first compound 0.04 µM); 0.786 in assay [1] (first compound 0.1265 µM); 0.778 in assay [1] (first compound 0.4 µM); 0.633 in assay [1] (first compound 1.265 µM); 0.503 in assay [1] (first compound 4 µM); 0.455 in assay [2] (first compound 0.08 µM). For the same cell line, the relative viability in assay [2] (first compound 0.253 µM) turned out to be 0.388; in assay [2] (first compound 0.8 µM), 0.37; in assay [2] (first compound 2.53 µM), 0.384; in assay [2] (first compound 8 µM) it was 0.389; in the assay with Tanzisertib + Luminespib (first compound 0.08 µM), 0.229; with Tanzisertib + Luminespib (first compound 0.253 µM) it was 0.231. Besides, the relative viability with Tanzisertib + Luminespib (first compound 0.8 µM) came to 0.189; with Tanzisertib + Luminespib (first compound 2.53 µM), 0.181; with Tanzisertib + Luminespib (first compound 8 µM) it was 0.18; in the assay with Tanzisertib + Lapatinib (first compound 0.08 µM) it was 1.1; with Tanzisertib + Lapatinib (first compound 0.253 µM) it was 0.869; with Tanzisertib + Lapatinib (first compound 0.8 µM), 0.855. Besides, the relative viability in the assay with Tanzisertib + Lapatinib (first compound 2.53 µM) stood at 0.994; in the assay with Tanzisertib + Lapatinib (first compound 8 µM) it was 0.816.

On to SK-MES-1, for which the relative viability in assay [1] (first compound 0.04 µM) was determined as 1.4; in assay [1] (first compound 0.1265 µM), 1.39; in assay [1] (first compound 0.4 µM) it was 1.34; in assay [1] (first compound 1.265 µM), 1.33; in assay [1] (first compound 4 µM), 1.14; in assay [2] (first compound 0.08 µM), 0.327. Besides, the relative viability in assay [2] (first compound 0.253 µM) came out at 0.314; in assay [2] (first compound 0.8 µM), 0.345; in assay [2] (first compound 2.53 µM), 0.298; in assay [2] (first compound 8 µM) it was 0.281; with Tanzisertib + Luminespib (first compound 0.08 µM), 0.718; with Tanzisertib + Luminespib (first compound 0.253 µM) it was 0.692. In addition, the relative viability with Tanzisertib + Luminespib (first compound 0.8 µM) is 0.698; with Tanzisertib + Luminespib (first compound 2.53 µM), 0.75; with Tanzisertib + Luminespib (first compound 8 µM) it was 0.499; with Tanzisertib + Lapatinib (first compound 0.08 µM), 0.49; with Tanzisertib + Lapatinib (first compound 0.253 µM) it was 0.438; with Tanzisertib + Lapatinib (first compound 0.8 µM), 0.455. Further, the relative viability stood at 0.509 with Tanzisertib + Lapatinib (first compound 2.53 µM) and 0.466 in the assay with Tanzisertib + Lapatinib (first compound 8 µM).

In the case of SW 1573, the relative viability in assay [1] (first compound 0.04 µM) was found to be 1.14; in assay [1] (first compound 0.1265 µM), 0.927; in assay [1] (first compound 0.4 µM), 1.12; in assay [1] (first compound 1.265 µM), 0.774; in assay [1] (first compound 4 µM), 0.426; in assay [2] (first compound 0.08 µM), 0.444. The relative viability stood at 0.455 in assay [2] (first compound 0.253 µM); 0.333 in assay [2] (first compound 0.8 µM); 0.456 in assay [2] (first compound 2.53 µM); 0.316 in assay [2] (first compound 8 µM); 0.294 with Tanzisertib + Luminespib (first compound 0.08 µM); 0.24 with Tanzisertib + Luminespib (first compound 0.253 µM). In addition, the relative viability in the assay with Tanzisertib + Luminespib (first compound 0.8 µM) was determined as 0.18; in the assay with Tanzisertib + Luminespib (first compound 2.53 µM), 0.187; with Tanzisertib + Luminespib (first compound 8 µM), 0.339; in the assay with Tanzisertib + Lapatinib (first compound 0.08 µM) it was 0.625; with Tanzisertib + Lapatinib (first compound 0.253 µM) it was 1.09; with Tanzisertib + Lapatinib (first compound 0.8 µM) it was 1. Besides, the results for the relative viability with Tanzisertib + Lapatinib (first compound 2.53 µM) and with Tanzisertib + Lapatinib (first compound 8 µM) were 1.01 and 1.1, respectively.
